Source: patent EP0974360A2, “Pharmaceutical preparations for use in combatting or preventing surface infections caused by microorganisms” (N.V. Nutricia, priority 1998, dated 2000)

Experiments:
C. glabrata Y110 [1] = assay: Synergy experiments (8 by 8 dilution matrix, growth by UV turbidity at 630 nm); format: cell-based; conditions: for UV (Candida growth, 630 nm): 24 hours
C. glabrata Y110 [2] = assay: MIC and growth inhibition at several pH's in SLM or RPMI medium; format: cell-based; conditions: figures 5 and 6

SMILES	decline of effective concentration as compared to its MIC value (C. glabrata Y110 [1]; 0.0008 µg/ml 5-fluorocytosine with 0.02 mg/ml lactoferrin) [times]	effect of an increase in pH of the medium on inhibition (C. glabrata Y110 [2])	UV (Candida growth, 630 nm) (C. glabrata Y110 [1]; Fluconazole 0.2 mg/ml alone)	UV (Candida growth, 630 nm) (C. glabrata Y110 [1]; Fluconazole 0.33 mg/ml alone)	UV (Candida growth, 630 nm) (C. glabrata Y110 [1]; Fluconazole 0.5 mg/ml alone)
Nc1nc(=O)[nH]cc1F [5-Fluorocytosine, 5-fluorocytosine]	30	–	–	–	–
OC(Cn1cncn1)(Cn1cncn1)c1ccc(F)cc1F [Fluconazole, fluconazole]	–	more efficient inhibition	0.003	0.003	0.004
